Data: patent US9862676B2, “Hydroxamic acid derivative or salt thereof” (TOYAMA CHEMICAL CO., LTD., priority 2013, dated 2018)
≈ marks a conversion by molar mass, not a printed value.

Columns and labels:
Assay type in all cases: cell-based
[1] = system: Pseudomonas aeruginosa ATCC27853 strain; assay: Antibacterial activity, MIC by broth microdilution (CLSI)
Protocol: (§1) The minimum inhibitory concentration (MIC) was measured according to the CLSI (Clinical and Laboratory Standards Institute) standard method using a broth microdilution method given below. The bacteria used were a Pseudomonas aeruginosa ATCC27853 strain, an Escherichia coli ATCC25922 strain and a Klebsiella pneumoniae ATCC13883 strain. Test bacterial cells of each strain cultured overnight in a Mueller-Hinton agar medium were scraped off and suspended at the McFarland 0.5 standard, and this suspension was diluted 10-fold to prepare an inoculum solution. The inoculum solution (0.005 mL) was inoculated to a cation-adjusted Mueller-Hinton medium containing each test compound and cultured at 35° C. for 16 to 20 hours. The minimum drug concentration at which bacterial growth was not visible to the naked eye was defined as MIC.

[2] = Test on inhibition of Vero cell growth (XTT); details: African green monkey, Vero cells, 3 days culture, read-out: CC50 (concentration inhibiting 50% of cell growth)
Protocol: Each test compound was dissolved in dimethyl sulfoxide, adjusted to each concentration using E'MEM, and then dispensed at 0.1 mL/well to 96-well microplates. The Vero cell suspension was prepared at 3×10^4 cells/mL using E'MEM supplemented with 20% FBS, inoculated thereto at 0.1 mL/well, and cultured at 37° C. for 3 days under 5% CO2. At the completion of the culture, PBS supplemented with 1 mg/mL 2,3-bis-(2-methoxy-4-nitro-5-sulfophenyl)-5-((phenylamino)carbonyl)-2H-tetrazolium inner salt monosodium salt (XTT) and 25 μM phenazine methosulfate (PMS) was prepared and added thereto at 50 μL/well. Approximately 2 hours later, the absorbance at 450 nm was measured using a microplate reader.

[3] = system: Klebsiella pneumoniae ATCC13883 strain; assay: Antibacterial activity, MIC by broth microdilution (CLSI)
Protocol: as §1

[4] = system: Escherichia coli ATCC25922 strain; assay: as above
Protocol: as §1

MIC [1] [µg/mL] | MIC [3] [µg/mL] | MIC [4] [µg/mL] | Structure (SMILES) | CC50 at 3 days [2] [µg/mL]
1 (≈ 2.07 µM) |  |  | CNC(=O)[C@@](C)(C(=O)NO)N(C)C(=O)c1ccc(C#Cc2ccc(COCC(O)CO)cc2)cc1 (stereo partly drawn) [Example 2, (2S)-2-((4-((4-((2,3-dihydroxypropoxy)methyl)phenyl)ethynyl)benzoyl)(methyl)amino)-N-hydroxy-N′,2-dimethylmalonamide] | ≥ 100
1 (≈ 2.08 µM) | 0.5 (≈ 1.04 µM) | 0.25 (≈ 0.519 µM) | CNC(=O)[C@@](C)(C(=O)NO)N(C)C(=O)c1ccc(C#Cc2ccc(COCC(C)(C)O)cc2)cc1 [Example 7, (2S)—N-hydroxy-2-((4-((4-((2-hydroxy-2-methylpropoxy)methyl)phenyl)ethynyl)benzoyl)(methyl)amino)-N′,2-dimethyl-malonamide] | ≥ 100
1 (≈ 2.14 µM) | 1 (≈ 2.14 µM) | 0.25 (≈ 0.535 µM) | CNC(=O)[C@@](C)(C(=O)NO)N(C)C(=O)c1ccc(C#Cc2ccc(CO[C@@H](C)CO)cc2)cc1 [Example 8, (2S)—N-hydroxy-2-((4-((4-(((1S)-2-hydroxy-1-methylethoxy)methyl)phenyl)ethynyl)benzoyl)(methyl)amino)-N′,2-dimethylmalonamide] | ≥ 100
 |  | 0.5 (≈ 1.1 µM) | CNC(=O)[C@@](C)(C(=O)NO)N(C)C(=O)c1ccc(C#Cc2ccc(C(CO)OC)cc2)cc1 (stereo partly drawn) [Example 9, (2S)—N-hydroxy-2-((4-((4-(2-hydroxy-1-methoxyethyl)phenyl)ethynyl)benzoyl)(methyl)amino)-N′,2-dimethyl-malonamide] | ≥ 100
1 (≈ 2.14 µM) | 0.5 (≈ 1.07 µM) | 0.25 (≈ 0.535 µM) | CNC(=O)[C@@](C)(C(=O)NO)N(C)C(=O)c1ccc(C#Cc2ccc(CO[C@H](C)CO)cc2)cc1 [Example 10, (2S)—N-hydroxy-2-((4-((4-(((1R)-2-hydroxy-1-methylethoxy)methyl)phenyl)ethynyl)benzoyl)(methyl)amino)-N′,2-dimethyl-malonamide] | ≥ 100
1 (≈ 2.21 µM) |  |  | CNC(=O)[C@@](C)(C(=O)NO)N(C)C(=O)c1ccc(C#Cc2ccc(CC(O)CO)cc2)cc1 (stereo partly drawn) [Example 15, (2S)-2-((4-((4-(2,3-dihydroxypropyl)phenyl)ethynyl)benzoyl)(methyl)amino)-N-hydroxy-N′,2-dimethylmalonamide] | 
1 (≈ 2.14 µM) |  |  | CNC(=O)[C@@](C)(C(=O)NO)N(C)C(=O)c1ccc(C#Cc2ccc(CC(CO)CO)cc2)cc1 [Example 18, (2S)—N-hydroxy-2-((4-((4-(3-hydroxy-2-(hydroxymethyl)propyl)phenyl)ethynyl)benzoyl)(methyl)amino)-N′,2-dimethyl-malonamide] | 
 |  | 0.5 (≈ 1.07 µM) | CNC(=O)[C@@](C)(C(=O)NO)N(C)C(=O)c1ccc(C#Cc2ccc(C(C)OCCO)cc2)cc1 (stereo partly drawn) [Example 21, (2S)—N-hydroxy-2-((4-((4-(1-(2-hydroxyethoxy)ethyl)phenyl)ethynyl)benzoyl)(methyl)amino)-N′,2-dimethyl-malonamide] | 
1 (≈ 2.07 µM) |  |  | CNC(=O)[C@@](C)(C(=O)NO)N(C)C(=O)c1ccc(C#Cc2ccc(C(O)COCCO)cc2)cc1 (stereo partly drawn) [Example 22, (2S)—N-hydroxy-2-((4-((4-(1-hydroxy-2-(2-hydroxyethoxy)ethyl)phenyl)ethynyl)benzoyl)(methyl)amino)-N′,2-dimethyl-malonamide] | ≥ 100
1 (≈ 2.21 µM) |  | 0.5 (≈ 1.1 µM) | CNC(=O)[C@@](C)(C(=O)NO)N(C)C(=O)c1ccc(C#Cc2ccc([C@@H](O)CCO)cc2)cc1 [Example 32, (2S)-2-((4-((4-((1S)-1,3-dihydroxypropyl)phenyl)ethynyl)benzoyl)(methyl)amino)-N-hydroxy-N′,2-dimethyl-malonamide] | 
1 (≈ 2.21 µM) |  | 0.5 (≈ 1.1 µM) | CNC(=O)[C@@](C)(C(=O)NO)N(C)C(=O)c1ccc(C#Cc2ccc([C@H](O)[C@@H](C)O)cc2)cc1 [Example 34, (2S)-2-((4-((4-((1S,2R)-1,2-dihydroxypropyl)phenyl)ethynyl)benzoyl)(methyl)amino)-N-hydroxy-N′,2-dimethyl-malonamide] | ≥ 100
1 (≈ 2.36 µM) | 0.5 (≈ 1.18 µM) | 0.125 (≈ 0.295 µM) | CNC(=O)[C@@](C)(C(=O)NO)N(C)C(=O)c1ccc(C#Cc2ccc([C@@H](C)O)cc2)cc1 [Example 37, (2S)—N-hydroxy-2-((4-((4-((1R)-1-hydroxyethyl)phenyl)ethynyl)benzoyl)(methyl)amino)-N′,2-dimethyl-malonamide] | 
 |  | 0.25 (≈ 0.59 µM) | CNC(=O)[C@@](C)(C(=O)NO)N(C)C(=O)c1ccc(C#Cc2ccc([C@H](C)O)cc2)cc1 [Example 38, (2S)—N-hydroxy-2-((4-((4-((1S)-1-hydroxyethyl)phenyl)ethynyl)benzoyl)(methyl)amino)-N′,2-dimethyl-malonamide] | 

The next lines start with the molecule.

Structure (SMILES) | MIC [1] [µg/mL] | MIC [3] [µg/mL] | MIC [4] [µg/mL] | CC50 at 3 days [2] [µg/mL]
CNC(=O)[C@@](C)(C(=O)NO)N(C)C(=O)c1ccc(C#Cc2ccc(COCCOC(C)=O)cc2)cc1 [Example 4, 2-((4-((4-((((1S)-2-(hydroxyamino)-1-methyl-1-((methylamino)carbonyl)-2-oxoethyl)(methyl)amino)carbonyl)phenyl)ethynyl)benzyl)oxy)ethyl acetate] |  | 0.5 | 0.25 | ≥ 100
CNC(=O)[C@@](C)(C(=O)NO)N(C)C(=O)c1ccc(C#Cc2ccc(COC(CO)CO)cc2)cc1 [Example 5, (2S)—N-hydroxy-2-((4-((4-((2-hydroxy-1-(hydroxymethyl)ethoxy)methyl)phenyl)ethynyl)benzoyl)(methyl)amino)-N′,2-dimethylmalonamide] |  |  |  | ≥ 100
CNC(=O)[C@@](C)(C(=O)NO)N(C)C(=O)c1ccc(C#Cc2ccc(C(CO)CO)cc2)cc1 [Example 6, (2S)—N-hydroxy-2-((4-((4-(2-hydroxy-1-(hydroxymethyl)ethyl)phenyl)ethynyl)benzoyl)(methyl)amino)-N′,2-dimethyl-malonamide] |  |  |  | ≥ 100
CNC(=O)[C@@](C)(C(=O)NO)N(C)C(=O)c1ccc(C#Cc2ccc(COC3COC3)cc2)cc1 [Example 11, (2S)—N-hydroxy-N′,2-dimethyl-2-(methyl(4-((4-((oxetan-3-yloxy)methyl)phenyl)ethynyl)benzoyl)amino)malonamide] |  | 0.5 (≈ 1.07 µM) | 0.0625 (≈ 0.134 µM) | 
CNC(=O)[C@@](C)(C(=O)NO)N(C)C(=O)c1ccc(C#Cc2ccc(/C=C/COC)cc2)cc1 [Example 12, (2S)—N-hydroxy-2-((4-((4-((1E)-3-methoxy-1-propen-1-yl)phenyl)ethynyl)benzoyl)(methyl)amino)-N′,2-dimethyl-malonamide] | 1 (≈ 2.22 µM) | 0.125 (≈ 0.278 µM) | 0.0625 (≈ 0.139 µM) | 
CNC(=O)[C@@](C)(C(=O)NO)N(C)C(=O)c1ccc(C#Cc2ccc(C(O)COC)cc2)cc1 (stereo partly drawn) [Example 13, (2S)—N-hydroxy-2-((4-((4-(1-hydroxy-2-methoxyethyl)phenyl)ethynyl)benzoyl)(methyl)amino)-N′,2-dimethyl-malonamide] | 1 (≈ 2.21 µM) | 1 (≈ 2.21 µM) | 0.25 (≈ 0.551 µM) | ≥ 100
CNC(=O)[C@@](C)(C(=O)NO)N(C)C(=O)c1ccc(C#Cc2ccc([C@@H](O)CO)c(F)c2)cc1 [Example 26, (2S)-2-((4-((4-(1,2-dihydroxyethyl)-3-fluorophenyl)ethynyl)benzoyl)(methyl)amino)-N-hydroxy-N′,2-dimethyl-malonamide] | 1 (≈ 2.19 µM) |  |  | 
CNC(=O)[C@@](C)(C(=O)NO)N(C)C(=O)c1ccc(C#Cc2ccc(C(O)COCCO)c(F)c2)cc1 (stereo partly drawn) [Example 27, (2S)-2-((4-((3-fluoro-4-(1-hydroxy-2-(2-hydroxyethoxy)ethyl)phenyl)ethynyl)benzoyl)(methyl)amino)-N-hydroxy-N′,2-dimethylmalonamide] | 1 (≈ 1.99 µM) |  |  | 
CNC(=O)[C@@](C)(C(=O)NO)N(C)C(=O)c1ccc(C#Cc2ccc([C@H](O)COCCCO)cc2)cc1 [Example 28, (2S)—N-hydroxy-2-((4-((4-((1S)-1-hydroxy-2-(3-hydroxypropoxy)ethyl)phenyl)ethynyl)benzoyl)(methyl)amino)-N′,2-dimethyl-malonamide] |  |  | 0.5 (≈ 1 µM) | ≥ 100
CCOC[C@@H](O)c1ccc(C#Cc2ccc(C(=O)N(C)[C@@](C)(C(=O)NC)C(=O)NO)cc2)cc1 [Example 29, (2S)-2-((4-((4-((1S)-2-ethoxy-1-hydroxyethyl)phenyl)ethynyl)benzoyl)(methyl)amino)-N-hydroxy-N′,2-dimethyl-malonamide] |  | 0.5 (≈ 1.07 µM) | 0.125 (≈ 0.267 µM) | ≥ 100
CNC(=O)[C@@](C)(C(=O)NO)N(C)C(=O)c1ccc(C#Cc2ccc([C@@H](O)COC)cc2)cc1 [Example 31, (2S)—N-hydroxy-2-((4-((4-((1R)-1-hydroxy-2-methoxyethyl)phenyl)ethynyl)benzoyl)(methyl)amino)-N′,2-dimethyl-malonamide] |  | 1 (≈ 2.21 µM) | 0.5 (≈ 1.1 µM) | ≥ 100
